Measured values from ChEMBL document CHEMBL1155474, “8-THP-DHI analogs as potent Type I dual TIE-2/VEGF-R2 receptor tyrosine kinase inhibitors” (Bioorg Med Chem Lett, 2010).
Active and inactive are the calls of the source. The rule behind the calls is not given here.

Legend:
[1] = AUC (0 to infinity) in rat at 10 mg/kg, po; format: ADME, organism-based; design: time infinity, dose 10 mg/kg, route oral; settings: plasma
[2] = biological target: Tyrosine-protein kinase Blk (Homo sapiens) (UniProt P51451); experiment: Inhibition of Blk at 3 uM
[3] = biological target: Fibroblast growth factor receptor 3 (Homo sapiens) (UniProt P22607); experiment: Inhibition of FGFR3 at 3 uM
[4] = biological target: Platelet-derived growth factor receptor beta (Homo sapiens) (UniProt P09619); experiment: Inhibition of PDGFRbeta at 3 uM
[5] = Terminal half life in rat at 1 mg/kg, iv; format: ADME, organism-based; design: dose 1 mg/kg, route intravenous; settings: in vivo, read-out: beta t1/2 (converted)
[6] = Inhibition of MAPK at 3 uM
Insulin receptor = Insulin receptor (Homo sapiens, UniProt P06213); experiment: Inhibition of insulin receptor
[7] = Plasma concentration in mouse SVR cells xenografted in nude mouse at 1 mg/kg, po bid administered after 4 days tumor implantation for 10 days measured after 2 hrs post dose; format: ADME, organism-based; design: dose 1 mg/kg, route oral
[8] = biological target: Tyrosine-protein kinase Lck (Homo sapiens) (UniProt P06239); experiment: Inhibition of LCK at 3 uM
[9] = biological target: Tyrosine-protein kinase Fyn (Homo sapiens) (UniProt P06241); experiment: Inhibition of Fyn at 3 uM
[10] = biological target: Vascular endothelial growth factor receptor 1 (Homo sapiens, UniProt P17948); experiment: Inhibition of VEGFR1 at 3 uM
[11] = Oral bioavailability in rat at 10 mg/kg; format: ADME, organism-based; settings: in vivo
[12] = Inhibition of JNK at 3 uM
Aorta = experiment: Ex vivo antiangiogenic activity in rat aortic ring assessed as inhibition of VEGF-stimulated microvessel growth; format: functional, tissue-based
[13] = biological target: Tyrosine-protein kinase Lyn (Homo sapiens) (UniProt P07948); experiment: Inhibition of Lyn at 3 uM
[14] = biological target: Glycogen synthase kinase-3 beta (Homo sapiens) (UniProt P49841); experiment: Inhibition of GSK3-beta at 3 uM
[15] = Clearance in rat at 1 mg/kg, iv; format: ADME, organism-based; design: dose 1 mg/kg, route intravenous; settings: in vivo
[16] = Terminal half life in rat at 10 mg/kg, po; format: ADME, organism-based; design: dose 10 mg/kg, route oral; settings: in vivo, read-out: beta t1/2 (converted)
[17] = biological target: Epidermal growth factor receptor (Homo sapiens, UniProt P00533); experiment: Inhibition of EGFR
[18] = biological target: T1, Vascular endothelial growth factor receptor 2 (Homo sapiens, UniProt P35968); experiment: Inhibition of VEGF-stimulated VEGFR2 autophosphorylation in HUVEC
[19] = Metabolic stability in rat liver S9 fraction; format: ADME, subcellular
[20] = Inhibition of PKC at 3 uM
[21] = biological target: T1, Vascular endothelial growth factor receptor 2; experiment: Inhibition of human recombinant VEGFR2 by time resolved fluorescence measurements
[22] = biological target: Dual specificity mitogen-activated protein kinase kinase 1 (Homo sapiens) (UniProt Q02750); experiment: Inhibition of MEK1 at 3 uM
[23] = Inhibition of CDK at 3 uM
Angiopoietin-1 receptor = Angiopoietin-1 receptor (Homo sapiens, UniProt Q02763); experiment: Inhibition of human recombinant TIE-2 by time resolved fluorescence measurements
[24] = AUC (0 to infinity) in rat at 1 mg/kg, iv; format: ADME, organism-based; design: time infinity, dose 1 mg/kg, route intravenous; settings: plasma
[25] = Volume of distribution in rat at 1 mg/kg, iv; format: ADME, organism-based; design: dose 1 mg/kg, route intravenous; settings: in vivo
[26] = Inhibition of cytochrome P450
[27] = biological target: Tyrosine-protein kinase Yes (Homo sapiens) (UniProt P07947); experiment: Inhibition of YES at 3 uM
HUVEC [28] = experiment: Cytotoxicity against HUVEC; format: cell-based; settings: human
[29] = biological target: Vascular endothelial growth factor receptor 3 (Homo sapiens, UniProt P35916); experiment: Inhibition of VEGFR3 at 3 uM
[30] = Plasma concentration in mouse SVR cells xenografted in nude mouse at 3 mg/kg, po bid administered after 4 days tumor implantation for 10 days measured after 2 hrs post dose; format: ADME, organism-based; design: dose 3 mg/kg, route oral
SVR [31] = experiment: Antitumor activity against mouse SVR cells xenografted in nude mouse assessed as tumor inhibition at 3 mg/kg, po bid administered after 4 days tumor implantation for 10 days; format: functional
HUVEC [32] = experiment: Inhibition of capillary tube formation in HUVEC; format: functional, cell-based; settings: Homo sapiens
SVR [33] = experiment: Antitumor activity against mouse SVR cells xenografted in nude mouse assessed as tumor inhibition at 1 mg/kg, po bid administered after 4 days tumor implantation for 10 days; format: functional
SVR [34] = experiment: Antitumor activity against mouse SVR cells xenografted in nude mouse assessed as tumor regressions at 3 mg/kg, po bid administered after 4 days tumor implantation for 10 days; format: functional
[35] = Cmax in rat at 10 mg/kg, po; format: ADME, organism-based; design: dose 10 mg/kg, route oral; settings: in vivo
[36] = biological target: T2, Serine/threonine-protein kinase Chk1 (Homo sapiens) (UniProt O14757); experiment: Inhibition of CHK1 at 3 uM
T2 sequence (whole entry): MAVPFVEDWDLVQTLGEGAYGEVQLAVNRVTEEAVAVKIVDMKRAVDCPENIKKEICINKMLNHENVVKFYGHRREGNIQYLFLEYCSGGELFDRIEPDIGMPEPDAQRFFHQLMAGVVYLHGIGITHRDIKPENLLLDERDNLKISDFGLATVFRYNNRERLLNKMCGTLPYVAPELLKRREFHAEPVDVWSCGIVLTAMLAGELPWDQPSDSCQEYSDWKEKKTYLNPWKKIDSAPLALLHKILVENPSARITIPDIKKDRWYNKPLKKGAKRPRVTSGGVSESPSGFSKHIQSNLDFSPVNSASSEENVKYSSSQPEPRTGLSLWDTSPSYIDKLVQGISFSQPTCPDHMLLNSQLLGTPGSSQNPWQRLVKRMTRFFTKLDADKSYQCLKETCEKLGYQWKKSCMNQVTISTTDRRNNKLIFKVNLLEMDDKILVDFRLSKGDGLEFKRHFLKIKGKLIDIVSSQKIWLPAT

SVR [37] = experiment: Antitumor activity against mouse SVR cells xenografted in nude mouse assessed as complete tumor regressions at 1 mg/kg, po bid administered after 4 days tumor implantation for 10 days; format: functional
SVR [38] = experiment: Antitumor activity against mouse SVR cells xenografted in nude mouse assessed as partial tumor regressions at 1 mg/kg, po bid administered after 4 days tumor implantation for 10 days; format: functional

T1 sequence (P35968 whole entry): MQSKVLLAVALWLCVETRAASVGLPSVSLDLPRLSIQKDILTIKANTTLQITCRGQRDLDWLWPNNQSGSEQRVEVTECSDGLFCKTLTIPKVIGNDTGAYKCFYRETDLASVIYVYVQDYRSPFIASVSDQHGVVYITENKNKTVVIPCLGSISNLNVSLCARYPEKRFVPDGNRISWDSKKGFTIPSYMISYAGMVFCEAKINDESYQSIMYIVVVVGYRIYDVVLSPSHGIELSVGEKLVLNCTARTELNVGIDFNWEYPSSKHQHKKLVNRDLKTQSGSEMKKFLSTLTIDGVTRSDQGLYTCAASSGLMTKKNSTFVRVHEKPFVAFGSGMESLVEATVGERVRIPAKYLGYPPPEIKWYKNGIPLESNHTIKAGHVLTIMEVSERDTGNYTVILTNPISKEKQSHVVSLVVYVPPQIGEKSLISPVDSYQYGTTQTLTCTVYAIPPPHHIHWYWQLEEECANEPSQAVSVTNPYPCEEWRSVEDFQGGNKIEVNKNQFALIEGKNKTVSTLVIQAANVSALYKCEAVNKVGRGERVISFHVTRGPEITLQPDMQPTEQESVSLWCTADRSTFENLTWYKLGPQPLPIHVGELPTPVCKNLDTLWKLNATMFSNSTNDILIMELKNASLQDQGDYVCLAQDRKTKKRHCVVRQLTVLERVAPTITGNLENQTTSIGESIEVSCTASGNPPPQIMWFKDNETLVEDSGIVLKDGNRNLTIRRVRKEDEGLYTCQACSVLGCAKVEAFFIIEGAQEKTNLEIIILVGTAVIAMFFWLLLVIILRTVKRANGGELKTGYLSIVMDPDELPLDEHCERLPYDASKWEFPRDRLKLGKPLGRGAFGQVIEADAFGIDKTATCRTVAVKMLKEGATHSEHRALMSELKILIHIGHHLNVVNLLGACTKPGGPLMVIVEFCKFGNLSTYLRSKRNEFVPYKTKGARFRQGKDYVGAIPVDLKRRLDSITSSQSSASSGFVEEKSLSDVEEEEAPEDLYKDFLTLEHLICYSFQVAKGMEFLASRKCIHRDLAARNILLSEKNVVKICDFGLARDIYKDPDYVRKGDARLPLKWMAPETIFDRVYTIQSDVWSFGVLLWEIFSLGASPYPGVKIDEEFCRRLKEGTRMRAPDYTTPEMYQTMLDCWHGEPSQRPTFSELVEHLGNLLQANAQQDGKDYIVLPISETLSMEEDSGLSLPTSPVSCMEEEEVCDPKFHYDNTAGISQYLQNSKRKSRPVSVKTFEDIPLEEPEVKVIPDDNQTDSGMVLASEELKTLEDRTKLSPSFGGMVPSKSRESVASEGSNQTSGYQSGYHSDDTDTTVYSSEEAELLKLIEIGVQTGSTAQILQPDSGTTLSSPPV
Sequence of Insulin receptor (P06213 28-758 limits assumed): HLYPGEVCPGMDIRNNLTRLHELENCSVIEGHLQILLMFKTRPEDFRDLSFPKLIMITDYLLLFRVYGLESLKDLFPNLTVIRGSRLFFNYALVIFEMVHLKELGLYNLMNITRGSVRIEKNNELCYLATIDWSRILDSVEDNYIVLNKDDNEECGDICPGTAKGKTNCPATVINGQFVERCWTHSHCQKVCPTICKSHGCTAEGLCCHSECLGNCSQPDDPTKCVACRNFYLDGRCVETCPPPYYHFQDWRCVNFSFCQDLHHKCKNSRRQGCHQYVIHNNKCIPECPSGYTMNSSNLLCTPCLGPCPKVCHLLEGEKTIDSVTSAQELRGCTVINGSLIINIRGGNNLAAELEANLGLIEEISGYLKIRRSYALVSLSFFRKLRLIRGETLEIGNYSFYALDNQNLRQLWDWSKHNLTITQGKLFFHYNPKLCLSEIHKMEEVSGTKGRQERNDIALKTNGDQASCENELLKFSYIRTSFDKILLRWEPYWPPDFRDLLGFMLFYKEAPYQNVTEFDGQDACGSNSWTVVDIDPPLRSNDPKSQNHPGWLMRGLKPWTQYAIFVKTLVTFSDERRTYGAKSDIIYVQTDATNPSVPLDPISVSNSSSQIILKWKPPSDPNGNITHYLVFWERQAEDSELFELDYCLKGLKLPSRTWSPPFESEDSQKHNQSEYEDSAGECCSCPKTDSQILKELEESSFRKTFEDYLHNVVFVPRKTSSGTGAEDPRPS
Sequence of Insulin receptor (P06213 763-1382 limits assumed): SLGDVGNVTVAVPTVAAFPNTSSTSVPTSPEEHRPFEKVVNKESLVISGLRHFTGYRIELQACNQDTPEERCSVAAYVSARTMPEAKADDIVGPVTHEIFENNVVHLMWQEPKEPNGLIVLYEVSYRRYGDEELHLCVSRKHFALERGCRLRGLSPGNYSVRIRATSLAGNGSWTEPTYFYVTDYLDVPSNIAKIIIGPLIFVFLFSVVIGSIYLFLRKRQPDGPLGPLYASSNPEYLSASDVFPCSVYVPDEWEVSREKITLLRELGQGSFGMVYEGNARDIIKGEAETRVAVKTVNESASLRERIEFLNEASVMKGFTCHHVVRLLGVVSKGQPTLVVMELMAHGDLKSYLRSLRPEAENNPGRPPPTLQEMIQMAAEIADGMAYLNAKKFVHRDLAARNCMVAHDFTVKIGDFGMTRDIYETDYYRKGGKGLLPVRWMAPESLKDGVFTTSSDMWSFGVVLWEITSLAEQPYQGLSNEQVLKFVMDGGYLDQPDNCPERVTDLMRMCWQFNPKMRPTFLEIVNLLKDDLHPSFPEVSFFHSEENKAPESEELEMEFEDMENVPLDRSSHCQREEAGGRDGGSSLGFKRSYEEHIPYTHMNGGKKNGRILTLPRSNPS
Sequence of Tyrosine-protein kinase Yes (Homo sapiens) (P07947 2-543 limits assumed): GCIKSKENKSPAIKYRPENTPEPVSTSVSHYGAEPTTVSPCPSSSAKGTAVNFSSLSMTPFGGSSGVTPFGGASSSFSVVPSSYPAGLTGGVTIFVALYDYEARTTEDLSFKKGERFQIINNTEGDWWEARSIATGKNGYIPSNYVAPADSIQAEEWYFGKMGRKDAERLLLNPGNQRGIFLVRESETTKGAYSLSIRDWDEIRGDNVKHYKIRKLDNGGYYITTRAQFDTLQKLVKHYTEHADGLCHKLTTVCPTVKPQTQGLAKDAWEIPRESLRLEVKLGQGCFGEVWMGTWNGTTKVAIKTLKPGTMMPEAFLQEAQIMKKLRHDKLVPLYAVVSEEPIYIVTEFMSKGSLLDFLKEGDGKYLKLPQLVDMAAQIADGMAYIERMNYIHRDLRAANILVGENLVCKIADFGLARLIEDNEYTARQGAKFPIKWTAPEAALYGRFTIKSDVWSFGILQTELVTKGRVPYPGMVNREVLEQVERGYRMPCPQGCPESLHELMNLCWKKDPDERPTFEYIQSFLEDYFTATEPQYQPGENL
Sequence of Dual specificity mitogen-activated protein kinase kinase 1 (Homo sapiens) (Q02750 whole entry): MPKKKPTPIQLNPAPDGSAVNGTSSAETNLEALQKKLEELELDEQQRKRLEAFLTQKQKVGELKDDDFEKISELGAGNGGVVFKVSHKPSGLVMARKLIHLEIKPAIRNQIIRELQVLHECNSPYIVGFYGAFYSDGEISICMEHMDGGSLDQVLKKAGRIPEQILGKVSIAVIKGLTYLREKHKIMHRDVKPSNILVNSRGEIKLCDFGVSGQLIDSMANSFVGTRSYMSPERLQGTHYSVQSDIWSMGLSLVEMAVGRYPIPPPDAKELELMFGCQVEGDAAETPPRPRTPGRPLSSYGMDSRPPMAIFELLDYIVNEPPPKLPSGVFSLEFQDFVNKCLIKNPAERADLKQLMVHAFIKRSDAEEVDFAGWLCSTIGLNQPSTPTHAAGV
Sequence of Tyrosine-protein kinase Blk (Homo sapiens) (P51451 2-505 limits assumed): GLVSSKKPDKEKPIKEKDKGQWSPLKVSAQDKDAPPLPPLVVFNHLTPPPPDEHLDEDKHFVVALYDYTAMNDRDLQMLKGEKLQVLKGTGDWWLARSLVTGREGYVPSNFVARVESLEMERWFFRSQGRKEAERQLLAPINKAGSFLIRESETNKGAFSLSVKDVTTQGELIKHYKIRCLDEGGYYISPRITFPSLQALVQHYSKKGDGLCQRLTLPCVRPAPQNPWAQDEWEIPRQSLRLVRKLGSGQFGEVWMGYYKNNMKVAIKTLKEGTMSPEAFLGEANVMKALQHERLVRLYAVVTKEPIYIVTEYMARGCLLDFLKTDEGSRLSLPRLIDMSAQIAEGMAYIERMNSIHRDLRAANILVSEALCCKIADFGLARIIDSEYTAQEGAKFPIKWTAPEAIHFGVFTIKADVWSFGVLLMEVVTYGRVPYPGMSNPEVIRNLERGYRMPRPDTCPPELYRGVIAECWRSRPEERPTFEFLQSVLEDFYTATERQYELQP
Sequence of Tyrosine-protein kinase Fyn (Homo sapiens) (P06241 2-537 limits assumed): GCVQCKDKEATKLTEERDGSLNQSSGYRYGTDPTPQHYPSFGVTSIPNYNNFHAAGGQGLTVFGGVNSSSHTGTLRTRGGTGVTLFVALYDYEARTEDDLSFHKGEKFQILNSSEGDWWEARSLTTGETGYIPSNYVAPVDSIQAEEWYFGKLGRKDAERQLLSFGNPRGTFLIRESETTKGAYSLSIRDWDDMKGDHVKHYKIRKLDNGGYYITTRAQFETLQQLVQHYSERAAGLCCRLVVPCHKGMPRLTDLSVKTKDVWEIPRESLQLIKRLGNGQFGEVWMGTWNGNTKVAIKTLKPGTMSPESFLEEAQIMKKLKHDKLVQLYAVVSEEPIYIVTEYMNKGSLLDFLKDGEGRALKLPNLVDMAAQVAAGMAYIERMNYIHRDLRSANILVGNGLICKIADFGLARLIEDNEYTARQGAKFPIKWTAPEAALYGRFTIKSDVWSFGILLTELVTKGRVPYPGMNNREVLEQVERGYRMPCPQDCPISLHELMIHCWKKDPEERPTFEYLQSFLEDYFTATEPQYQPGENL

With `CCCCn1c2ccc(C3CCCCO3)cc2c2c3c(c4c(c21)CCc1nn(C)cc1-4)C(=O)NC3` (racemic) the AUC(0-inf) [1] was 1890 ng·h/mL, the inhibition [2] was greater than 90% and the inhibition [3] was 100%. For the same molecule, the inhibition [4] was greater than 90%, the half-life [5] was 1.5 h and the inhibition [6] was “inactive”. The IC50 (Insulin receptor) was greater than 1000 nM, the concentration at 2 h [7] was 158 nM and the inhibition [8] was greater than 90%. For the same molecule, the inhibition [9] was greater than 90%, the IC50 [10] was 28 nM and the bioavailability [11] was 16%. For the same molecule, the inhibition [12] was “inactive”, the EC50 (Aorta) was 1.2 nM and the inhibition [13] was greater than 90%. The inhibition [14] was “inactive”, the clearance [15] was 15 mL/min/kg and the half-life [16] was 2.8 h. The IC50 [17] was greater than 1000 nM, the IC50 [18] was 10 nM and the Stability [19] was “Stable”. For the same molecule, the inhibition [20] was “inactive”, the IC50 [21] was 24 nM and the inhibition [22] was “inactive”. For the same molecule, the inhibition [23] was “inactive”, the IC50 (Angiopoietin-1 receptor) was 10 nM and the AUC(0-inf) [24] was 1160 ng·h/mL. For the same molecule, the Vd [25] was 2 L/kg, the INH [26] was greater than 10 µM and the inhibition [27] was greater than 90%. The Activity (HUVEC [28]) was “Non-toxic”, the IC50 [29] was 5 nM and the concentration at 2 h [30] was 900 nM. It also gave an inhibition in vivo at 3 mg/kg (SVR [31]) of 63%, an EC50 (HUVEC [32]) of 0.6 nM and an inhibition in vivo at 1 mg/kg (SVR [33]) of 52%. The Activity (SVR [34]) was 10%, the Cmax [35] was 255 ng/mL and the inhibition [36] was “inactive”.
`CC(C)Cn1c2ccc(C3CCCCO3)cc2c2c3c(c4c(c21)CCc1nn(C)cc1-4)C(=O)NC3` (racemic) gave an AUC(0-inf) [1] of 1260 ng·h/mL, an Activity (SVR [37]) of 10% and an inhibition [2] greater than 90%. The inhibition [3] was 100%, the inhibition [4] was greater than 90% and the Activity (SVR [38]) was 10%. The half-life [5] was 1.9 h, the inhibition [6] was “inactive” and the IC50 (Insulin receptor) was greater than 1000 nM. The concentration at 2 h [7] was 321 nM, the inhibition [8] was greater than 90% and the inhibition [9] was greater than 90%. For the same molecule, the IC50 [10] was 16 nM, the bioavailability [11] was 15% and the inhibition [12] was “inactive”. The EC50 (Aorta) was 0.9 nM, the inhibition [13] was greater than 90% and the inhibition [14] was “inactive”. The clearance [15] was 20 mL/min/kg, the half-life [16] was 3.9 h and the IC50 [17] was greater than 1000 nM. For the same molecule, the IC50 [18] was 10 nM, the Stability [19] was “Stable” and the inhibition [20] was “inactive”. The IC50 [21] was 11 nM, the inhibition [22] was “inactive” and the inhibition [23] was “inactive”. The IC50 (Angiopoietin-1 receptor) was 3 nM, the AUC(0-inf) [24] was 862 ng·h/mL and the Vd [25] was 3.2 L/kg. The INH [26] was greater than 10 µM, the inhibition [27] was greater than 90% and the Activity (HUVEC [28]) was “Non-toxic”. The IC50 [29] was 9 nM, the concentration at 2 h [30] was 950 nM and the inhibition in vivo at 3 mg/kg (SVR [31]) was 61%. For the same molecule, the EC50 (HUVEC [32]) was 2 nM, the inhibition in vivo at 1 mg/kg (SVR [33]) was 59% and the Activity (SVR [34]) was 10%. For the same molecule, the Cmax [35] was 154 ng/mL and the inhibition [36] was “inactive”.
